For experiment [1], the system named is staphyl. aur. b, Penicillinase-forming substance. The experiment can be described thus: Bactericidal MIC-values, 50 strains (Table 2). The format is cell-based. Particulars: of 50 strains; MIC steps 2000 to 0.0002 γ/ml, counts in descending MIC order.
Experiment [2] concerns strept. pyogenes ATCC 8668. The experiment can be described thus: Bactericidal activity in vitro, cylinder test (Table 1). The format is cell-based. Particulars: Streptococcus pyogenes, ATCC8668; 18 h at 37° C., average of three individual measurements; read-out: Bactericidal action (MIC).
Experiment [3] concerns staphyloc. aur. NCTC 6571. Described as above. The format is cell-based. Particulars: 18 h at 37° C., average of three individual measurements; read-out: Bactericidal action (MIC).
A further experiment relates to aerobacter aeroges. Put plainly: Bactericidal MIC-values, 50 strains (Table 2). The format is cell-based. Particulars: of 50 strains; MIC steps 2000 to 0.0002 γ/ml, counts in descending MIC order.
Experiment [4] concerns escherichia coli NCTC 10418. Put plainly: Bactericidal activity in vitro, cylinder test (Table 1). It is filed as cell-based. Particulars: NCTC10418, 18 h at 37° C., average of three individual measurements, read-out: Bactericidal action (MIC).
Experiment [5] deals with strept. faecalis ATCC 10541. The description is as above. The format is cell-based. Particulars: Enterococcus faecalis, ATCC10541; 18 h at 37° C., average of three individual measurements; read-out: Bactericidal action (MIC).
Another experiment deals with fungi. The experiment can be described thus: Fungicidal activity (statement). It is filed as cell-based. The following applies: ampicillin alone. Here is the method: The MIC-values for the fungicidal activity of the combination product were determined according to the provisions of the American Soc. of Clinical Microbiology, Manual of Clinical Microbiology, 2nd Edition (Washington, D.C.).

The test system of another experiment is psuedomonas aeruginosa. Put plainly: Bactericidal MIC-values, 50 strains (Table 2). The format is cell-based. Particulars: of 50 strains; MIC steps 2000 to 0.0002 γ/ml, counts in descending MIC order.
In experiment [6] the test system is strept. pneumon. ATCC 6302. Put plainly: Bactericidal activity in vitro, cylinder test (Table 1). The following applies: 18 h at 37° C., average of three individual measurements; read-out: Bactericidal action (MIC). The format is cell-based.
Experiment [7] deals with proteus mirabilis b, Penicillinase-forming substance. Put plainly: Bactericidal MIC-values, 50 strains (Table 2). It is filed as cell-based. The following applies: of 50 strains; MIC steps 2000 to 0.0002 γ/ml, counts in descending MIC order.
For a further experiment, the system named is h. influencae ATCC 19418. The experiment can be described thus: Bactericidal activity in vitro, cylinder test (Table 1). The format is cell-based. The following applies: 18 h at 37° C., average of three individual measurements; read-out: Bactericidal action (MIC).
The test system of experiment [8] is strept. faecalis ATCC 19433. Described as above. The format is cell-based. Particulars: Enterococcus faecalis, ATCC19433; 18 h at 37° C., average of three individual measurements; read-out: Bactericidal action (MIC).
Experiment [9] relates to stapyloc. aur. ATCC 11522. The description is as above. The format is cell-based. The following applies: 18 h at 37° C., average of three individual measurements; read-out: Bactericidal action (MIC).
The test system of experiment [10] is stapyloc. aur. ATCC 6538 P (Penicillinase forming substance). The experiment is described as above. It is filed as cell-based. Particulars: 18 h at 37° C., average of three individual measurements.
Experiment [11] relates to strains which form Penicillinase. Put plainly: Bactericidal activity against penicillinase-forming strains (statement). Particulars: ampicillin alone. The format is cell-based.
Experiment [12] has as its system strept. faecalis ATCC 8043. The experiment can be described thus: Bactericidal activity in vitro, cylinder test (Table 1). It is filed as cell-based. Particulars: Enterococcus faecalis, ATCC8043; 18 h at 37° C., average of three individual measurements; read-out: Bactericidal action (MIC).
Experiment [13] has as its system strept. pneumon. ATCC 6301. The experiment is described as above. It is filed as cell-based. Particulars: 18 h at 37° C., average of three individual measurements; read-out: Bactericidal action (MIC).
Experiment [14] relates to ps. aeruginosa NCTC 10662. Described as above. It is filed as cell-based. Particulars: Pseudomonas aeruginosa, NCTC10662; 18 h at 37° C., average of three individual measurements; read-out: Bactericidal action (MIC).
The conditions of experiment [15]: 0.5 mg Dexam 3 × daily perorally, after 5 days.
The nature of experiment [16]: Clinical test of Norfenefrin and Norfenefrin + glucoprotein, blood pressure (Table 6). It is filed as in vivo, patients. Particulars: 14th day, 3.0 mg Norfenefrin once daily.
Experiment [17] can be described thus: Clinical test of phenylbutazone and phenylbutazone + glucoprotein, BSG (Table 5). It is filed as in vivo, patients. The following applies: 1.0 g phenylbutazone 3 × daily orally, after 8 days.
[18] abbreviates: three hours after medication, individual patient.

Values after ≈ are worked out from the molar mass of the structure shown. Values joined by “and” are separate entries in the source; they are usually repeats but may differ in a detail not shown here. Equal entries are not always repeated. Where two headings read alike, the source gives them in different places.

Regarding `CC1(C)S[C@@H]2[C@H](NC(=O)[C@H](N)c3ccccc3)C(=O)N2[C@H]1C(=O)O` [Ampicillin, D-(2-amino-2-phenylacetamido)-3,3-dimethyl-7-oxo-4-thia-1-azabicyclo-[3,2,0]-heptane-2-carboxylic acid], the “Bactericidal MIC-values: number of strains at each MIC step” value (in [1]; with aerobacter aeroges; in the experiment with psuedomonas aeruginosa; in [7]) was 50 in each case. In addition, the MIC amounted to 0.03 µg/mL (≈ 0.0859 µM) in [2]; 0.06 µg/mL (≈ 0.172 µM) in experiment [3]; 8 µg/mL (≈ 22.9 µM) in experiment [4]; 1 µg/mL (≈ 2.86 µM) in experiment [5]; 0.06 µg/mL (≈ 0.172 µM) in experiment [6]; 0.25 µg/mL (≈ 0.715 µM) in the experiment with h. influencae ATCC 19418. For the same compound, the minimum inhibitory concentration (MIC) in [8] was found to be 2 µg/mL (≈ 5.72 µM); in [9], 0.06 µg/mL (≈ 0.172 µM); in experiment [12] it was 2 µg/mL (≈ 5.72 µM); in [13] it was 0.06 µg/mL (≈ 0.172 µM); in [14], 240 µg/mL (≈ 687 µM). For the same compound, the fungicidal activity entry with fungi is reported as “no fungicidal activity which can be evaluated in practice”. For the same compound, the “Bactericidal action (MIC)” value in experiment [10] is listed as “resistant”. Moreover, the “action against Penicillinase-forming strains” value in [11] was “completely ineffective”.
With `C[C@@H]1C[C@H]2[C@@H]3CCC4=CC(=O)C=C[C@]4(C)[C@@]3(F)[C@@H](O)C[C@]2(C)[C@@]1(O)C(=O)CO` [Dexam, dexamethasone], in experiment [15] (average of 10 patients), the “ASLO, average” value turned out to be 220 i.E; the “BSG after 1 h., average” value stood at 23.5; the “BSG after 2 h., average” value was 38.8. In experiment [15] (individual patient), the ASLO is 200 i.E. and 100 i.E. and 300 i.E; the “BSG after 1 h.” value is 25 and 20 and 30 and 24 and 22; the “BSG after 2 h.” value is 30 and 35 and 40 and 45 and 50 and 42 and 38 and 36 and 34.
As to `NCC(O)c1cccc(O)c1` (centres unmarked) [Norfenefrin], in experiment [16] (setting [18]), the diastolic blood pressure was 70 and 75 and 80; the systolic blood pressure is 120 and 125 and 130. In experiment [16] (average of 10 patients), the “diastolic blood pressure, average” value is recorded as 76.5 and the “systolic blood pressure, average” value turned out to be 126.0.
As to `CCCCC1C(=O)N(c2ccccc2)N(c2ccccc2)C1=O` [phenylbutazone], in [17] (average of 10 patients), the “BSG after 1 h., average” value was found to be 33.2 and the “BSG after 2 h., average” value worked out at 57.9. Also, in experiment [17] (individual patient), the “BSG after 1 h.” value is 38 and 40 and 35 and 30 and 28 and 32 and 25; the “BSG after 2 h.” value is 62 and 60 and 50 and 45 and 58.

The values above are taken from US4153686A, “Process for the preparation of glucoproteins as well as the use thereof” (priority 1976, dated 1979).
